Laboratory results reported in paper PMC9706920, “Aryloxypropanolamine targets amyloid aggregates and reverses Alzheimer-like phenotypes in Alzheimer mouse models” (Alzheimer's Research & Therapy, 2022).

Columns and labels:
CYP 2C9 = target: T1, CYP 2C9 (Homo sapiens, UniProt P11712); test: CYP450 inhibition assay, 2C9; type: in vitro ADME; settings: YIAD002 10 μM, human liver microsomes; weak or no inhibition; read-out: CYP 2C9 inhibition, IC50 (inhibition criteria)
T1 construct: contained human liver microsomes (0.25 mg/ml); from tissue; host or cells: human liver microsomes
Description: (§1) Incubation mixtures for Cytochrome P450s (CYPs) inhibition assay contained human liver microsomes (0.25 mg/ml), 0.1 M phosphate buffer (pH 7.4), 10 μM of YIAD002, and an enzyme substrate cocktail (phenacetin 50 μM, diclofenac 10 μM, S-mephenytoin 100 μM, dextromethorphan 5 μM, and midazolam 2.5 μM). The mixture was pre-incubated at 37°C for 5 min and 1 mM NAPDH was added to initiate reactions. After 15 min of incubation, acetonitrile with terfenadine was added to stop reactions and microsomal solutions were centrifuged at 14,000 rpm at 4°C for 5 min. For LC-MS/MS analysis, supernatants were injected on a Kinetex C18 column (2.1 × 100 mm, 2.6 μm particle size, Phenomenex, USA). The composition of the mobile phase was 0.1% formic acid in water (A) and 0.1% formic acid in acetonitrile (B).

CYP 2D6 = target: T2, CYP 2D6 (Homo sapiens, UniProt P10635); test: CYP450 inhibition assay, 2D6; type: in vitro ADME; settings: YIAD002 10 μM, human liver microsomes; weak or no inhibition; read-out: CYP 2D6 inhibition, IC50 (inhibition criteria)
T2 construct: contained human liver microsomes (0.25 mg/ml); from tissue; host or cells: human liver microsomes
Description: as §1

[1] = Microsomal stability, rat; type: in vitro ADME; settings: 1 μM, 30 min, 37°C
Description: To evaluate the rate of drug metabolism, we tested YIAD002 stability in liver microsomes of human, rat, and mouse. Microsomal concentration was 0.5 mg/ml in 0.1 M phosphate buffer (pH 7.4). 1 μM of YIAD002 was added to microsome solutions and was prewarmed at 37°C for 5 min. NADPH-regenerating solution was added to microsomes and incubated at 37°C for 30 min. At the end of incubation, acetonitrile with chlorpropamide was added to stop reactions and microsomal solutions were centrifuged at 14,000 rpm at 4°C for 5 min. For LC-MS/MS analysis, supernatants were injected on a Kinetex C18 column (2.1 × 100 mm, 2.6 μm particle size, Phenomenex, USA). The composition of the mobile phase was 0.1% formic acid in water (A) and 0.1% formic acid in acetonitrile (B).

Plasma stability, rat = type: in vitro ADME; settings: 10 μM, 37°C, vs 0 min
Description: To assess the plasma stability of YIAD002, […] rat plasma and incubated at 37°C for the following time points: 0, 30, and 120 min. At the end of incubation, acetonitrile with chlorpropamide was added to stop reactions. The solutions were centrifuged at 14,000 rpm at 4°C for 5 min and the supernatant was analyzed with LC-MS/MS. High performance liquid chromatography was carried out on a Kinetex C18 column (2.1 × 100 mm, 2.6 μm particle size, Phenomenex, USA). The composition of the mobile phase was 0.1% formic acid in water (A) and 0.1% formic acid in acetonitrile (B).

APP/PS1 mice = test: 6E10 immunohistochemical staining of amyloid plaques in APP/PS1 mice; type: in vivo, mouse; settings: YIAD002-treated APP/PS1 mice vs vehicle
Description: To test whether YIAD002 could reduce amyloid plaques in another AD mouse model, APP/PS1 transgenic mice (n = 24) and wildtype mice (n = 5) were assessed at the age of 7.5 months. YIAD002 was dissolved in PBS (0.5% methylcellulose) at two different concentrations (10 and 30 mg/kg/day) and administrated daily to APP/PS1 mice (n = 8 for each group) via oral gavage for 8 weeks. As a control, vehicle solutions were orally administrated to littermate APP/PS1 mice (n = 8) and wildtype mice (n = 5).
Formalin-fixed APP/PS1 mice brains were infiltrated with paraffin using a tissue processor (LEICA ASP300S, Germany). Blocks of tissues were produced with a tissue embedding center and sectioned into thin slices (4 μm), which were mounted onto glass slides. To prepare for 6E10 staining, slides were deparaffinized, rehydrated, and blocked with 0.03% H2O2 to remove endogenous peroxidase. For antigen retrieval, slides were boiled in Tris/EDTA solution (pH 9.0) using a pressure cooker. Unspecific binding was blocked through incubation in 4% BSA at RT for 30 min. Slides were immunolabeled with anti-6E10 antibody (1:2000, Novus Biologicals NBP2-62566) at RT for 1 h and HRP-labeled secondary antibody (Dako K4003) for 30 min and subsequently stained with DAB (3,3′-Diaminobenzidine) and counterstained with Mayer’s hematoxylin. Stained slides were scanned using ZEISS Axio scan.Z1 microscope. Amyloid plaques were quantified using Image-J software (NIH).

[2] = target: T3, Aβ-Aβ interactions (Aβ(1–42) fragments) (Homo sapiens, UniProt P05067); test: Mapping assay of Aβ(1–42) with peptide fragments; type: biochemical; settings: YIAD002 500 μM, 24 h, Flamma 552-labeled Aβ(1–42) 10 μM, compared to full-length Aβ(1–42) control
T3 construct: we added monomeric Aβ(1–42) (10 μM) labeled with fluorescent dye Flamma 552 to each well
Description: Aβ fragments made up of six overlapping amino acid residues and a cysteine residue at the C-terminal were acquired by Fmoc solid phase peptide synthesis as previously described. Full length Aβ(1–42) with an additional cysteine residue at the C-terminal was used for comparison. The peptides were dissolved in DMSO ([…]) and diluted in binding buffer (0.1 M sodium phosphate, 0.15 M sodium chloride, 10 mM EDTA; pH 7.2) to prepare 50 μg/mL peptide solutions. To immobilize the Aβ fragments and monomers to maleimide-activated microplates, 100 μL of peptide solutions (50 μg/mL) was added and incubated at RT for 2 h while shaking. Cysteine solution (10 μg/mL with binding buffer) was added to cap unreacted maleimide groups. […] To define the fluorescence baseline for each well, fluorescence intensity was measured at 555 (excitation) and 580 (emission). YIAD002 (500 μM in binding buffer, 7.5% DMSO) was added to each well and incubated at RT for 24 h while shaking. Fluorescence intensity was remeasured at 555 (excitation) and 580 (emission) and baseline fluorescence was subtracted to quantify the change in fluorescence intensity caused by YIAD002. The plate was washed with 200 μL of wash buffer (0.1 M sodium phosphate, 0.15 M sodium chloride, 0.05% Tween®-20 Detergent; pH 7.2) per well three times in between steps.

[3] = Observation of adverse effects in the current studies

T2 sequence (P10635 whole entry): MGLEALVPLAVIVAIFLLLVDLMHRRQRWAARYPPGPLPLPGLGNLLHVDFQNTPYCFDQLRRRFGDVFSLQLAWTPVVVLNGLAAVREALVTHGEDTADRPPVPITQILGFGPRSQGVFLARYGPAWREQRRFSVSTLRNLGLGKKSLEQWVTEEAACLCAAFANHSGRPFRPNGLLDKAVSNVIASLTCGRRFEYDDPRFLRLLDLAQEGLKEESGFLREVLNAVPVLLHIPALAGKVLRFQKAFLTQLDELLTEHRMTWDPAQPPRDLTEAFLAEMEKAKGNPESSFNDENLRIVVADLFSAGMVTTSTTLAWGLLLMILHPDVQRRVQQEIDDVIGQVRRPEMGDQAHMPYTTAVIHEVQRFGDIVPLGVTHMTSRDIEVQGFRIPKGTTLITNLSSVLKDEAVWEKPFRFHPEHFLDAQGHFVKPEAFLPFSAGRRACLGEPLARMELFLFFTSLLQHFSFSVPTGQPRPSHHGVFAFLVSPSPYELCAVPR
T3 sequence (P05067 672-713): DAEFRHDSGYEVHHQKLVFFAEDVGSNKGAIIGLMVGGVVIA
T1 sequence (P11712 whole entry): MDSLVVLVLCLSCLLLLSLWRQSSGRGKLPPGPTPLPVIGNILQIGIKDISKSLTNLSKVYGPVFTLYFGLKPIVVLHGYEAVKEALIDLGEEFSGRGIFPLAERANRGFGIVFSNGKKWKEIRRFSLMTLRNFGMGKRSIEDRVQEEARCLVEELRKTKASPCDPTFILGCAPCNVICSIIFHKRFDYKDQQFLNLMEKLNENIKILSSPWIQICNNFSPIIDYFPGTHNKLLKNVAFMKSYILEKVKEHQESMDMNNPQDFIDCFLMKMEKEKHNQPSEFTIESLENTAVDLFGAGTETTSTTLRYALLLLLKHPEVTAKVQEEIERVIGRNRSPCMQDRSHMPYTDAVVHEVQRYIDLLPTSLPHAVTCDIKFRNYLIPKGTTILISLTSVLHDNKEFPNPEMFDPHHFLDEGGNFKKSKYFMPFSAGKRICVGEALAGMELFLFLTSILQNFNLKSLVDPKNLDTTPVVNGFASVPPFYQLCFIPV

## CCC(C)(C)c1ccc(OCC(O)CN2CCCC2)c(C(C)(C)CC)c1.Cl (stereo not drawn) [YIAD002, 1-(3-(2,4-Di-tert-pentylphenoxy)-2-hydroxypropyl)pyrrolidin-1-ium chloride]
CYP 2C9
  IC50: > 10 µM
CYP 2D6
  IC50: > 10 µM
[1]
  Remaining compound in rat microsomes: 11.2%
Plasma stability, rat; 30 min
  Compound remaining in rat plasma: 94.5%
Plasma stability, rat; 120 min
  Compound remaining in rat plasma: 87.7%
APP/PS1 mice
  Number of plaques, cortex: significantly reduced
  Plaque size, hippocampus: significantly reduced
  Size of plaques, cortex: significantly reduced
APP/PS1 mice; dose not given
  Area of 6E10-stained plaques, whole brain: reduced
  Number of 6E10-stained plaques, whole brain: reduced
[2]
  Dissociation of Aβ-Aβ interactions at immobilised Aβ fragments: markedly dissociated Aβ-Aβ interactions at residues Aβ(16–21), KLVFFA, and Aβ(32–37), IGLMVG
[3]
  Adverse effects of toxicity: not observed
